Source: patent US9737535B2, “Methods for treating cancer using TOR kinase inhibitor combination therapy comprising administering substituted pyrazino[2,3-b]pyrazines” (Signal Pharmaceuticals, LLC, priority 2014, dated 2017)

System: MDA-MB-436
Assay: Anti-proliferation assay (ATPLite), Chalice synergy score
Assay type: cell-based
Conditions: Compound 1 in combination with second active agent, mean self-cross + 2σ threshold 1.91
Text: (§1) Cells were thawed from a liquid nitrogen preserved state.
(§2) The calculation for synergy score is provided below.
(§3) If T≧V0:100*[1−(T−V0)/(V−V0)]

Row | SMILES | Synergy score
1 | C=CC(=O)Nc1ccc2ncnc(Nc3ccc(OCc4cccc(F)c4)c(Cl)c3)c2c1 [AST-1306] | 2.08
2 | NC(=O)[C@@H](CCC(F)(F)F)N(Cc1ccc(-c2ncon2)cc1F)S(=O)(=O)c1ccc(Cl)cc1 [BMS-708163] | 0.86
3 | COc1ccc(Cl)c(Nc2nc3ccccc3nc2NS(=O)(=O)c2cccc(NC(=O)C(C)(C)N)c2)c1 [XL147] | 0.67
4 | O=C(O)c1ccc2c(c1)nc(Nc1cccc(Cl)c1)c1ccncc12 [CX-4945] | 1.70

System: HCC-1937
Assay: as above
Assay type: cell-based
Conditions: Compound 1 in combination with the named second active agent, 72 h, mean of n = 3 experiments in triplicate
Text: as §1, §2, §3

Row | SMILES | Synergy score
5 | C=CC(=O)Nc1ccc2ncnc(Nc3ccc(OCc4cccc(F)c4)c(Cl)c3)c2c1 [AST-1306] | 6.39
6 | NC(=O)[C@@H](CCC(F)(F)F)N(Cc1ccc(-c2ncon2)cc1F)S(=O)(=O)c1ccc(Cl)cc1 [BMS-708163] | 0.96
7 | COc1ccc(Cl)c(Nc2nc3ccccc3nc2NS(=O)(=O)c2cccc(NC(=O)C(C)(C)N)c2)c1 [XL147] | 0.64
8 | O=C(O)c1ccc2c(c1)nc(Nc1cccc(Cl)c1)c1ccncc12 [CX-4945] | 7.92

System: HCC-1428
Assay: as above
Assay type: cell-based
Conditions: Compound 1 in combination with the named second active agent, 72 h, mean of n = 3 experiments in triplicate
Text: as §1, §2, §3

Row | SMILES | Synergy score
9 | C=CC(=O)Nc1ccc2ncnc(Nc3ccc(OCc4cccc(F)c4)c(Cl)c3)c2c1 [AST-1306] | 2.69
10 | NC(=O)[C@@H](CCC(F)(F)F)N(Cc1ccc(-c2ncon2)cc1F)S(=O)(=O)c1ccc(Cl)cc1 [BMS-708163] | 0.26
11 | COc1ccc(Cl)c(Nc2nc3ccccc3nc2NS(=O)(=O)c2cccc(NC(=O)C(C)(C)N)c2)c1 [XL147] | 0.43
12 | O=C(O)c1ccc2c(c1)nc(Nc1cccc(Cl)c1)c1ccncc12 [CX-4945] | 3.28

System: HCC70
Assay: as above
Assay type: cell-based
Conditions: Compound 1 in combination with second active agent; HCC-70; mean self-cross + 2σ threshold 3.45
Text: as §1, §2, §3

Row | SMILES | Synergy score
13 | C=CC(=O)Nc1ccc2ncnc(Nc3ccc(OCc4cccc(F)c4)c(Cl)c3)c2c1 [AST-1306] | 7.50
14 | NC(=O)[C@@H](CCC(F)(F)F)N(Cc1ccc(-c2ncon2)cc1F)S(=O)(=O)c1ccc(Cl)cc1 [BMS-708163] | 1.24
15 | COc1ccc(Cl)c(Nc2nc3ccccc3nc2NS(=O)(=O)c2cccc(NC(=O)C(C)(C)N)c2)c1 [XL147] | 0.09
16 | O=C(O)c1ccc2c(c1)nc(Nc1cccc(Cl)c1)c1ccncc12 [CX-4945] | 10.60

System: BT-549
Assay: as above
Assay type: cell-based
Conditions: Compound 1 in combination with the named second active agent, 72 h, mean of n = 3 experiments in triplicate
Text: as §1, §2, §3

Row | SMILES | Synergy score
17 | C=CC(=O)Nc1ccc2ncnc(Nc3ccc(OCc4cccc(F)c4)c(Cl)c3)c2c1 [AST-1306] | 4.88
18 | NC(=O)[C@@H](CCC(F)(F)F)N(Cc1ccc(-c2ncon2)cc1F)S(=O)(=O)c1ccc(Cl)cc1 [BMS-708163] | 0.34
19 | COc1ccc(Cl)c(Nc2nc3ccccc3nc2NS(=O)(=O)c2cccc(NC(=O)C(C)(C)N)c2)c1 [XL147] | 0.18
20 | O=C(O)c1ccc2c(c1)nc(Nc1cccc(Cl)c1)c1ccncc12 [CX-4945] | 3.41

System: HCC-1806
Assay: as above
Assay type: cell-based
Conditions: Compound 1 in combination with the named second active agent, 72 h, mean of n = 3 experiments in triplicate
Text: as §1, §2, §3

Row | SMILES | Synergy score
21 | C=CC(=O)Nc1ccc2ncnc(Nc3ccc(OCc4cccc(F)c4)c(Cl)c3)c2c1 [AST-1306] | 5.59
22 | NC(=O)[C@@H](CCC(F)(F)F)N(Cc1ccc(-c2ncon2)cc1F)S(=O)(=O)c1ccc(Cl)cc1 [BMS-708163] | 0.89
23 | COc1ccc(Cl)c(Nc2nc3ccccc3nc2NS(=O)(=O)c2cccc(NC(=O)C(C)(C)N)c2)c1 [XL147] | 1.06
24 | O=C(O)c1ccc2c(c1)nc(Nc1cccc(Cl)c1)c1ccncc12 [CX-4945] | 4.19

System: Hs-578-T
Assay: as above
Assay type: cell-based
Conditions: Compound 1 in combination with second active agent, mean self-cross + 2σ threshold 4.09
Text: as §1, §2, §3

Row | SMILES | Synergy score
25 | C=CC(=O)Nc1ccc2ncnc(Nc3ccc(OCc4cccc(F)c4)c(Cl)c3)c2c1 [AST-1306] | 4.43
26 | NC(=O)[C@@H](CCC(F)(F)F)N(Cc1ccc(-c2ncon2)cc1F)S(=O)(=O)c1ccc(Cl)cc1 [BMS-708163] | 1.36
27 | COc1ccc(Cl)c(Nc2nc3ccccc3nc2NS(=O)(=O)c2cccc(NC(=O)C(C)(C)N)c2)c1 [XL147] | 0.77
28 | O=C(O)c1ccc2c(c1)nc(Nc1cccc(Cl)c1)c1ccncc12 [CX-4945] | 5.97

System: MDA-MB-157
Assay: as above
Assay type: cell-based
Conditions: Compound 1 in combination with second active agent, mean self-cross + 2σ threshold 4.68
Text: as §1, §2, §3

Row | SMILES | Synergy score
29 | C=CC(=O)Nc1ccc2ncnc(Nc3ccc(OCc4cccc(F)c4)c(Cl)c3)c2c1 [AST-1306] | 3.02
30 | NC(=O)[C@@H](CCC(F)(F)F)N(Cc1ccc(-c2ncon2)cc1F)S(=O)(=O)c1ccc(Cl)cc1 [BMS-708163] | 0.63
31 | COc1ccc(Cl)c(Nc2nc3ccccc3nc2NS(=O)(=O)c2cccc(NC(=O)C(C)(C)N)c2)c1 [XL147] | 1.99
32 | O=C(O)c1ccc2c(c1)nc(Nc1cccc(Cl)c1)c1ccncc12 [CX-4945] | 4.55

System: MDA-MB-468
Assay: as above
Assay type: cell-based
Conditions: Compound 1 in combination with second active agent, mean self-cross + 2σ threshold 4.66
Text: as §1, §2, §3

Row | SMILES | Synergy score
33 | C=CC(=O)Nc1ccc2ncnc(Nc3ccc(OCc4cccc(F)c4)c(Cl)c3)c2c1 [AST-1306] | 5.65
34 | NC(=O)[C@@H](CCC(F)(F)F)N(Cc1ccc(-c2ncon2)cc1F)S(=O)(=O)c1ccc(Cl)cc1 [BMS-708163] | 0.98
35 | COc1ccc(Cl)c(Nc2nc3ccccc3nc2NS(=O)(=O)c2cccc(NC(=O)C(C)(C)N)c2)c1 [XL147] | 0.34
36 | O=C(O)c1ccc2c(c1)nc(Nc1cccc(Cl)c1)c1ccncc12 [CX-4945] | 6.73

System: MCF7
Assay: as above
Assay type: cell-based
Conditions: Compound 1 in combination with second active agent, mean self-cross + 2σ threshold 3.07
Text: as §1, §2, §3

Row | SMILES | Synergy score
37 | C=CC(=O)Nc1ccc2ncnc(Nc3ccc(OCc4cccc(F)c4)c(Cl)c3)c2c1 [AST-1306] | 4.34
38 | NC(=O)[C@@H](CCC(F)(F)F)N(Cc1ccc(-c2ncon2)cc1F)S(=O)(=O)c1ccc(Cl)cc1 [BMS-708163] | 0.16
39 | COc1ccc(Cl)c(Nc2nc3ccccc3nc2NS(=O)(=O)c2cccc(NC(=O)C(C)(C)N)c2)c1 [XL147] | 0.18
40 | O=C(O)c1ccc2c(c1)nc(Nc1cccc(Cl)c1)c1ccncc12 [CX-4945] | 2.26

System: BT-474
Assay: as above
Assay type: cell-based
Conditions: Compound 1 in combination with the named second active agent, 72 h, mean of n = 3 experiments in triplicate
Text: as §1, §2, §3

Row | SMILES | Synergy score
41 | C=CC(=O)Nc1ccc2ncnc(Nc3ccc(OCc4cccc(F)c4)c(Cl)c3)c2c1 [AST-1306] | 4.02
42 | NC(=O)[C@@H](CCC(F)(F)F)N(Cc1ccc(-c2ncon2)cc1F)S(=O)(=O)c1ccc(Cl)cc1 [BMS-708163] | 0.19
43 | COc1ccc(Cl)c(Nc2nc3ccccc3nc2NS(=O)(=O)c2cccc(NC(=O)C(C)(C)N)c2)c1 [XL147] | 1.81
44 | O=C(O)c1ccc2c(c1)nc(Nc1cccc(Cl)c1)c1ccncc12 [CX-4945] | 4.91

System: MDA-MB-231
Assay: as above
Assay type: cell-based
Conditions: Compound 1 in combination with second active agent, mean self-cross + 2σ threshold 2.61
Text: as §1, §2, §3

Row | SMILES | Synergy score
45 | C=CC(=O)Nc1ccc2ncnc(Nc3ccc(OCc4cccc(F)c4)c(Cl)c3)c2c1 [AST-1306] | 4.37
46 | NC(=O)[C@@H](CCC(F)(F)F)N(Cc1ccc(-c2ncon2)cc1F)S(=O)(=O)c1ccc(Cl)cc1 [BMS-708163] | 1.45
47 | COc1ccc(Cl)c(Nc2nc3ccccc3nc2NS(=O)(=O)c2cccc(NC(=O)C(C)(C)N)c2)c1 [XL147] | 0.57
48 | O=C(O)c1ccc2c(c1)nc(Nc1cccc(Cl)c1)c1ccncc12 [CX-4945] | 2.30

System: BT-20
Assay: as above
Assay type: cell-based
Parameters: scale not given here
Conditions: Compound 1 in combination with the named second active agent, 72 h, mean of n = 3 experiments in triplicate
Text: as §1, §2, §3

Row | SMILES | Synergy score
49 | C=CC(=O)Nc1ccc2ncnc(Nc3ccc(OCc4cccc(F)c4)c(Cl)c3)c2c1 [AST-1306] | 7.60
50 | NC(=O)[C@@H](CCC(F)(F)F)N(Cc1ccc(-c2ncon2)cc1F)S(=O)(=O)c1ccc(Cl)cc1 [BMS-708163] | 0.20
51 | COc1ccc(Cl)c(Nc2nc3ccccc3nc2NS(=O)(=O)c2cccc(NC(=O)C(C)(C)N)c2)c1 [XL147] | 0.23
52 | O=C(O)c1ccc2c(c1)nc(Nc1cccc(Cl)c1)c1ccncc12 [CX-4945] | 6.09

System: HCC-1187
Assay: as above
Assay type: cell-based
Parameters: scale not given here
Conditions: Compound 1 in combination with the named second active agent, 72 h, mean of n = 3 experiments in triplicate
Text: as §1, §2, §3

Row | SMILES | Synergy score
53 | C=CC(=O)Nc1ccc2ncnc(Nc3ccc(OCc4cccc(F)c4)c(Cl)c3)c2c1 [AST-1306] | 2.17
54 | NC(=O)[C@@H](CCC(F)(F)F)N(Cc1ccc(-c2ncon2)cc1F)S(=O)(=O)c1ccc(Cl)cc1 [BMS-708163] | 3.06
55 | COc1ccc(Cl)c(Nc2nc3ccccc3nc2NS(=O)(=O)c2cccc(NC(=O)C(C)(C)N)c2)c1 [XL147] | 5.02
56 | O=C(O)c1ccc2c(c1)nc(Nc1cccc(Cl)c1)c1ccncc12 [CX-4945] | 7.53

System: HCC-1500
Assay: as above
Assay type: cell-based
Parameters: scale not given here
Conditions: Compound 1 in combination with the named second active agent, 72 h, mean of n = 3 experiments in triplicate
Text: as §1, §2, §3

Row | SMILES | Synergy score
57 | C=CC(=O)Nc1ccc2ncnc(Nc3ccc(OCc4cccc(F)c4)c(Cl)c3)c2c1 [AST-1306] | 0.96
58 | NC(=O)[C@@H](CCC(F)(F)F)N(Cc1ccc(-c2ncon2)cc1F)S(=O)(=O)c1ccc(Cl)cc1 [BMS-708163] | 0.34
59 | COc1ccc(Cl)c(Nc2nc3ccccc3nc2NS(=O)(=O)c2cccc(NC(=O)C(C)(C)N)c2)c1 [XL147] | 2.87
60 | O=C(O)c1ccc2c(c1)nc(Nc1cccc(Cl)c1)c1ccncc12 [CX-4945] | 2.93
